Results published in patent US11013249B2, “Compositions for controlled release of volatile compounds” (University of Guelph, priority 2016, dated 2021).
In brackets after ≈: the same amount, converted by molar mass. Several values for one entry are separate records, joined by “and”; a condition that tells them apart may be missing. Equal values may be shown once. Read-outs that look alike come from different tables or passages of the source.

Assays:
[1] = Release of diacetyl and AITC vapours from PEG blends into jar headspace (automatic headspace sampling, GC); format: physicochemical; conditions: from 4:1 PEG400:PEG10K
Experimental: PEG400 and PEG10K were blended at 1:4, 2:3, 3:2 and 4:1 (w/w) ratios. All PEG blends (20±1 g) were heated to 90° C. in a 20 mL glass vial for 20 min to ensure the polymers were melted and thoroughly mixed with the aid of a magnetic stir bar. […] The vials were capped, kept in a 75° C. oven and continuously being stirred with the magnetic stir bar for 15 min. The molten mixtures were injected into a mould fabricated from glass (2 cm×1.5 cm×0.1 cm) and allowed to set. One face of the mould was lined with aluminum tape (adhesive side facing away from PEG), which acted as a baking material for the solidified PEG. Upon solidification, diacetyl/AITC impregnated PEG sheeting was formed.
With the aid of a controller (SRI Instruments Inc., Las Vegas, Nev., USA), the headspace air in the glass jar was sampled automatically by means of a vacuum pump and two stream selection valves (Model EMTCA-CE, VICI Valco Instruments Co. Inc., Houston, Texax, USA), and injected into a gas chromatograph equipped with flame ionization detector (GC 6890, Agilent Technologies Inc., Santa Clara, Calif., USA.). Both the detector and oven temperatures were set at 150° C. The flow rates of the carrier gas (N2), compressed air and hydrogen were 30 mL/min, 200 mL/min and 30 mL/min, respectively. Retention time and peak area were analyzed by using chromatographic software (Peak Simple 393-32 bit, SRI Instruments, Torrance, Calif., USA). After each sampling, an equal amount of dry air was injected back into the jar to maintain the interior pressure at one atmosphere.
Diacetyl or AITC release profiles were generated by plotting Mn versus time.
The release profiles of the antimicrobial compounds were fitted in a model which combines first order kinetics and zero order kinetics: C=Ce×(1−e^−kt)+αt (Eq. 3) where C is the compound concentration at time t; Ce is the equilibrium concentration for diffusion; k is the diffusion rate constant; α is the rate of zero order kinetics. Models are fitted to the data before reaching the equilibrium.

[2] = test system: Yeast; assay: Inhibitory effects of AITC, diacetyl and cinnamaldehyde vapour; format: cell-based, yeast isolated from mung bean sprouts
Experimental: (§1) P. fluorescens was selected as a model spoilage bacteria, while mould and yeast were isolated from spoiled mung bean sprouts with bacteria excluded by cultivating in potato dextrose broth (PDB) (Sigma, Oakville, ON, Canada) at pH 5.6±0.2. Yeast and P. fluorescens stocks were cultivated in PDB and trypticase soy broth (TSB) (Bacto, BD, Sparks, USA), respectively, at 30° C. for 24 h and diluted with sterile saline solution (NaCl, 8.5 g/L water) to a concentration of 10^6 CFU/mL. An aliquot of 50 μL of the prepared yeast or bacteria suspension was spread on potato dextrose agar (PDA) (Difco, BD, Sparks, USA) or trypticase soy agar (TSA) (Bacto, BD, Sparks, USA), respectively, in 5 cm diameter petri dishes (Fisher Scientific, Ottawa, ON, Canada). Mycelium of mould was inoculated as one spot at the center of the PDA dishes. Two freshly inoculated petri dishes of same microorganism, with their lids removed, were placed in a one-liter glass jar. […] The growth of the microorganisms was monitored by the colony formation for 3 days.

[3] = test system: Mould; assay: as above; format: cell-based, mould isolated from mung bean sprouts; conditions: vapour in one-liter jar; 25° C.
Experimental: as §1

[4] = test system: P. Fluorescens; assay: as above; format: cell-based, Pseudomonas fluorescens P33; conditions: 25° C.
Experimental: as §1

[5] = cited from earlier work
[6] = Amount 0.1 mg in one-liter jar, 25° C.

C=CCN=C=S [AITC, Allyl isothiocyanate]
Ce ([1]; 0 μL water, 5° C.): 0.0212 mg/L | k ([1]; 0 μL water, 5° C.): 0.0149 h⁻¹ | α ([1]; 0 μL water, 5° C.): 3.39e-06 h⁻¹ | Ce ([1]; 0 μL water, 25° C.): 0.0791 mg/L | k ([1]; 0 μL water, 25° C.): 0.016 h⁻¹ and 0.01604 h⁻¹ | α ([1]; 0 μL water, 25° C.): 1.94e-05 h⁻¹ | maximum released after 42 h ([1]; 5° C.): 0.14 mg | Ce ([1]; 10 μL water, 5° C.): 0.0245 mg/L | k ([1]; 10 μL water, 5° C.): 0.01509 h⁻¹ | α ([1]; 10 μL water, 5° C.): 3.63e-06 h⁻¹ | Ce ([1]; 10 μL water, 25° C.): 0.1012 mg/L | k ([1]; 10 μL water, 25° C.): 0.01169 h⁻¹ | α ([1]; 10 μL water, 25° C.): 1.76e-05 h⁻¹ | maximum released after 42 h ([1]; 25° C.): 0.47 mg | maximum release within 42 h ([1]; 25° C., 10 μL water): 0.15 mg | maximum release within 42 h ([1]; 25° C., 100 μL water): 0.18 mg | maximum release within 42 h ([1]; 25° C., 1000 μL water): 0.48 mg | maximum release within 42 h ([1]; 25° C., dry condition): 0.13 mg | Ce ([1]; 100 μL water, 5° C.): 0.0353 mg/L | k ([1]; 100 μL water, 5° C.): 0.01022 h⁻¹ | α ([1]; 100 μL water, 5° C.): 1.09e-05 h⁻¹ | Ce ([1]; 100 μL water, 25° C.): 0.1523 mg/L | k ([1]; 100 μL water, 25° C.): 0.00896 h⁻¹ | α ([1]; 100 μL water, 25° C.): 1.25e-05 h⁻¹ | Ce ([1]; 1000 μL water, 5° C.): 0.0454 mg/L | k ([1]; 1000 μL water, 5° C.): 0.00564 h⁻¹ | α ([1]; 1000 μL water, 5° C.): 3.75e-05 h⁻¹ | Ce ([1]; 1000 μL water, 25° C.): 0.1365 mg/L | k ([1]; 1000 μL water, 25° C.): 0.009 h⁻¹ and 0.00945 h⁻¹ | time of reaching equilibrium of release ([1]; 1000 μL water, 25° C.): around 1300 min | α ([1]; 1000 μL water, 25° C.): 0.00029 h⁻¹ and 0.000291 h⁻¹ | Yeast day1, visual colony number [2, 6]: + (less than 15) | Yeast day2, visual colony number [2, 6]: + (less than 15) | Yeast day3, visual colony number [2, 6]: + (less than 15) | MIC ([2]; read-out: minimum inhibition concentration (MIC)): 0.5 µg/mL (≈ 5.04 µM) | effective concentration against yeast ([2]; vapour in one-liter jar, 25° C.): 0.5 mg/L | concentration that inhibited the growth of mould for three days [3]: 0.1 mg/L | P. Fluorescens day1, visual colony number ([4]; Amount 0.1 mg in one-liter jar): ++ (15-50) | P. Fluorescens day2, visual colony number ([4]; Amount 0.1 mg in one-liter jar): ++ (15-50) | P. Fluorescens day1, visual colony number ([4]; Amount 0.5 mg in one-liter jar): + (less than 15) | P. Fluorescens day2, visual colony number ([4]; Amount 0.5 mg in one-liter jar): + (less than 15) | effective concentration against P. fluorescens ([4]; vapour in one-liter jar): 1 mg/L | Saturated vapor pressure ([5]; 5° C.): ~140 Pa | vapor pressure (volatility) ([5]; 20° C.): 0.49 kPa | Saturated vapor pressure ([5]; 45° C.): ~1500 Pa

Cc1ccc(C(C)C)c(O)c1 [thymol, Thymol]
vapor pressure ([5]; 25° C.): 0.0054 kPa
